Measured values as given in ChEMBL document CHEMBL1201862, “PubChem BioAssay data set” (2004).
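Protocol summary: plate cells (96-well), add compound at 5 concentrations, incubate 48 h, interpolate endpoints linearly. GI50: concentration for 50% inhibition of growth.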 The source made the active and inactive calls. Cut-off read from the data, not from the text of the source: active = GI50 up to about 1.1 µM and inactive = higher.

Key:
Test in all cases: inhibition of tumour cell growth, NCI panel, 48 h
786-0 = test system: 786-0
A498 = test system: A498
A549 = test system: A549
ACHN = test system: ACHN
BT-549 = test system: BT-549
CAKI-1 = test system: CAKI-1
CCRF-CEM = test system: CCRF-CEM
COLO 205 = test system: COLO 205
DLD-1 = test system: DLD-1
DMS-114 = test system: DMS-114
DMS-273 = test system: DMS-273
DU-145 = test system: DU-145
EKVX = test system: EKVX
HCC 2998 = test system: HCC 2998
HCT-116 = test system: HCT-116
HCT-15 = test system: HCT-15
HL-60 = test system: HL-60
HOP-18 = test system: HOP-18
HOP-62 = test system: HOP-62
HOP-92 = test system: HOP-92
HT-29 = test system: HT-29
Hs-578T = test system: Hs-578T
IGROV-1 = test system: IGROV-1
K562 = test system: K562
KM-20L2 = test system: KM-20L2
KM12 = test system: KM12
LOX IMVI = test system: LOX IMVI
LXFL 529 = test system: LXFL 529
M14 = test system: M14
M19-MEL = test system: M19-MEL
MCF7 = test system: MCF7
MDA-MB-231 = test system: MDA-MB-231
MDA-N = test system: MDA-N
MOLT-4 = test system: MOLT-4
Malme-3M = test system: Malme-3M
NCI-H226 = test system: NCI-H226
NCI-H23 = test system: NCI-H23
NCI-H460 = test system: NCI-H460
NCI-H522 = test system: NCI-H522
OVCAR-3 = test system: OVCAR-3
OVCAR-4 = test system: OVCAR-4
OVCAR-5 = test system: OVCAR-5
OVCAR-8 = test system: OVCAR-8
PC-3 = test system: PC-3
RPMI-8226 = test system: RPMI-8226
RXF 393 = test system: RXF 393
RXF 631 = test system: RXF 631
SF-268 = test system: SF-268
SF-295 = test system: SF-295
SF-539 = test system: SF-539
SK-MEL-28 = test system: SK-MEL-28
SK-MEL-2 = test system: SK-MEL-2
SK-MEL-5 = test system: SK-MEL-5
SK-OV-3 = test system: SK-OV-3
SN12C = test system: SN12C
SNB-19 = test system: SNB-19
SNB-75 = test system: SNB-75
SNB-78 = test system: SNB-78
SR = test system: SR
SW-620 = test system: SW-620
T47D = test system: T47D
TK-10 = test system: TK-10
U-251 = test system: U-251
UACC-257 = test system: UACC-257
UACC-62 = test system: UACC-62
UO-31 = test system: UO-31
XF498 = test system: XF498

In the case of Cc1c2ccncc2cc2c1sc1ccncc12, the GI50 (786-0) is reported as 2.06 µM (inactive), the GI50 (A498) is reported as 4.31 µM (inactive) and the GI50 (A549) is reported as 0.845 µM (active). The GI50 (ACHN) was 1.06 µM (active), the GI50 (BT-549) was 2.49 µM (inactive) and the GI50 (CAKI-1) was 2.01 µM (inactive). The GI50 (CCRF-CEM) was 1.21 µM (inactive), the GI50 (COLO 205) was 3.24 µM (inactive) and the GI50 (DLD-1) was 4.18 µM (inactive). For the same molecule, the GI50 (DMS-114) was 6.21 µM (inactive), the GI50 (DMS-273) was 2.09 µM (inactive) and the GI50 (DU-145) was 1.97 µM (inactive). For the same molecule, the GI50 (EKVX) was 3.17 µM (inactive), the GI50 (HCC 2998) was 5.52 µM (inactive) and the GI50 (HCT-116) was 1.75 µM (inactive). The GI50 (HCT-15) was 1.9 µM, the GI50 (HL-60) was 0.877 µM (active) and the GI50 (HOP-18) was 7.71 µM (inactive). The GI50 (HOP-62) was 1.74 µM (inactive), the GI50 (HOP-92) was 8.22 µM (inactive) and the GI50 (HT-29) was 2.73 µM (inactive). The GI50 (Hs-578T) was 2.39 µM (inactive), the GI50 (IGROV-1) was 3.47 µM (inactive) and the GI50 (K562) was 4.14 µM (inactive). For the same molecule, the GI50 (KM-20L2) was 5.5 µM (inactive), the GI50 (KM12) was 3.55 µM (inactive) and the GI50 (LOX IMVI) was 1.57 µM (inactive). For the same molecule, the GI50 (LXFL 529) was 6.68 µM (inactive), the GI50 (M14) was 4.53 µM (inactive) and the GI50 (M19-MEL) was 3.94 µM (inactive). For the same molecule, the GI50 (MCF7) was 0.41 µM (active), the GI50 (MDA-MB-231) was 3.57 µM (inactive) and the GI50 (MDA-N) was 2.67 µM (inactive). The GI50 (MOLT-4) was 0.468 µM (active), the GI50 (Malme-3M) was 4.16 µM (inactive) and the GI50 (NCI-H226) was 0.684 µM (active). For the same molecule, the GI50 (NCI-H23) was 2.51 µM (inactive), the GI50 (NCI-H460) was 0.485 µM (active) and the GI50 (NCI-H522) was 2.14 µM (inactive). For the same molecule, the GI50 (OVCAR-3) was 6.56 µM (inactive), the GI50 (OVCAR-4) was 5.71 µM (inactive) and the GI50 (OVCAR-5) was 3.18 µM (inactive). For the same molecule, the GI50 (OVCAR-8) was 2.61 µM (inactive), the GI50 (PC-3) was 1.86 µM (inactive) and the GI50 (RPMI-8226) was 0.993 µM (active). The GI50 (RXF 393) was 5.24 µM (inactive), the GI50 (RXF 631) was 2.25 µM (inactive) and the GI50 (SF-268) was 3.66 µM (inactive). The GI50 (SF-295) was 1.96 µM (inactive), the GI50 (SF-539) was 4.56 µM (inactive) and the GI50 (SK-MEL-28) was 5.82 µM (inactive). For the same molecule, the GI50 (SK-MEL-2) was 6.17 µM (inactive), the GI50 (SK-MEL-5) was 1.68 µM (inactive) and the GI50 (SK-OV-3) was 2.23 µM (inactive). The GI50 (SN12C) was 2 µM (inactive), the GI50 (SNB-19) was 2.74 µM (inactive) and the GI50 (SNB-75) was 3.8 µM (inactive). For the same molecule, the GI50 (SNB-78) was 13 µM (inactive), the GI50 (SR) was 0.325 µM (active) and the GI50 (SW-620) was 1.45 µM (inactive). The GI50 (T47D) was 2.04 µM (inactive), the GI50 (TK-10) was 7.29 µM (inactive) and the GI50 (U-251) was 2.22 µM (inactive). The GI50 (UACC-257) was 3.85 µM (inactive), the GI50 (UACC-62) was 2.16 µM (inactive) and the GI50 (UO-31) was 1.27 µM (inactive). The GI50 (XF498) was 12.1 µM (inactive).

In the case of CC(=O)OCc1c(O)nc2c(c1O)-c1ccccc1CC2, the GI50 (786-0) is reported as 56.9 µM (inactive), the GI50 (A549) is reported as 134 µM (inactive) and the GI50 (ACHN) is reported as 163 µM (inactive). The GI50 (CAKI-1) was 59.2 µM (inactive), the GI50 (CCRF-CEM) was 67.1 µM (inactive) and the GI50 (COLO 205) was 57 µM (inactive). For the same molecule, the GI50 (DLD-1) was 71.9 µM (inactive), the GI50 (DMS-114) was 67.8 µM (inactive) and the GI50 (DMS-273) was 49.2 µM (inactive). The GI50 (EKVX) was 125 µM (inactive), the GI50 (HCC 2998) was 80.9 µM (inactive) and the GI50 (HCT-116) was 58.2 µM (inactive). For the same molecule, the GI50 (HCT-15) was 57.5 µM, the GI50 (HL-60) was 84.7 µM (inactive) and the GI50 (HOP-18) was 129 µM (inactive). The GI50 (HOP-62) was 131 µM (inactive), the GI50 (HOP-92) was 78.5 µM (inactive) and the GI50 (HT-29) was 113 µM (inactive). For the same molecule, the GI50 (IGROV-1) was 164 µM (inactive), the GI50 (K562) was 109 µM (inactive) and the GI50 (KM-20L2) was 106 µM (inactive). The GI50 (KM12) was 53.2 µM (inactive), the GI50 (LOX IMVI) was 61.4 µM (inactive) and the GI50 (LXFL 529) was 60 µM (inactive). The GI50 (M19-MEL) was 54.3 µM (inactive), the GI50 (MOLT-4) was 97.5 µM (inactive) and the GI50 (Malme-3M) was > 35 µM (inactive). For the same molecule, the GI50 (NCI-H226) was > 350 µM (inactive), the GI50 (NCI-H23) was 76.6 µM (inactive) and the GI50 (NCI-H460) was 77.8 µM (inactive). The GI50 (NCI-H522) was 35.6 µM (inactive), the GI50 (OVCAR-3) was 51.5 µM (inactive) and the GI50 (OVCAR-8) was 101 µM (inactive). The GI50 (RPMI-8226) was 38.5 µM (inactive), the GI50 (RXF 393) was 54.6 µM (inactive) and the GI50 (RXF 631) was 69.5 µM (inactive). The GI50 (SF-268) was 77.1 µM (inactive), the GI50 (SF-295) was 74.6 µM (inactive) and the GI50 (SF-539) was 89.1 µM (inactive). For the same molecule, the GI50 (SK-MEL-28) was 59.6 µM (inactive), the GI50 (SK-MEL-2) was > 35 µM (inactive) and the GI50 (SK-MEL-5) was 76.6 µM (inactive). For the same molecule, the GI50 (SK-OV-3) was 194 µM (inactive), the GI50 (SN12C) was 62.2 µM (inactive) and the GI50 (SNB-19) was > 350 µM (inactive). The GI50 (SR) was 95.1 µM (inactive), the GI50 (SW-620) was 56.4 µM (inactive) and the GI50 (TK-10) was 86.9 µM (inactive). The GI50 (U-251) was > 350 µM (inactive), the GI50 (UACC-257) was 81.3 µM (inactive) and the GI50 (UACC-62) was 50.5 µM (inactive). For the same molecule, the GI50 (XF498) was 56.5 µM (inactive).
